The values below come from ChEMBL document CHEMBL1177720, “Selective hexapeptide agonists and antagonists for human complement C3a receptor” (J Med Chem, 2010).

SMILES strings stand for the structures. Active and inactive are the calls of the source. No cut-off for these calls is given here. Square brackets hold non-standard residues; d marks the D form. Peptide text beside a SMILES is read from it. 1Nal = N[C@@H](Cc1cccc2ccccc12)C(=O)O; hPhe = N[C@@H](CCc1ccccc1)C(=O)O; Cha = N[C@@H](CC1CCCCC1)C(=O)O; Nle = CCCC[C@H](N)C(=O)O

One test has as its target T1, C3a anaphylatoxin chemotactic receptor (Homo sapiens) (UniProt Q16581).
T1 sequence (whole entry): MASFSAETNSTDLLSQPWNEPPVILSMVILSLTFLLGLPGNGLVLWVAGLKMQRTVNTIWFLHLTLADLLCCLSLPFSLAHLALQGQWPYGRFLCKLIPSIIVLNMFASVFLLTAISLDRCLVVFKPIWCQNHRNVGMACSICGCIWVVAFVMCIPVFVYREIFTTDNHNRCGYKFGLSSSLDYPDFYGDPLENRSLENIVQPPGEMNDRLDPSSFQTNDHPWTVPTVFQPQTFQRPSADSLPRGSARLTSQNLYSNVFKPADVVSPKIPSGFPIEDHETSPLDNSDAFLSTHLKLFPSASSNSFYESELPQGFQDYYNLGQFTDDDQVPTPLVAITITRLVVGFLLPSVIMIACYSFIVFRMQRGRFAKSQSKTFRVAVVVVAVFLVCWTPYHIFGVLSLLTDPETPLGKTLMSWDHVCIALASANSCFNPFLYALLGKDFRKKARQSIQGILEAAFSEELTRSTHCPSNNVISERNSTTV
The experiment in a line: Agonist activity at human C3a receptor in human U937 cells assessed as induction of intracellular calcium release at 1 mM. In kind it is functional, cell-based. The note with it: U-937. In general terms: Calcium flux is commonly read through the fluorescence of an indicator in the cells.
Consider `CC(C)C[C@H](NC(=O)[C@@H](N)Cc1ccccc1)C(=O)N[C@H](C(=O)N[C@H](CC1CCCCC1)C(=O)N[C@@H](C)C(=O)N[C@@H](CCCNC(=N)N)C(=O)O)[C@@H](C)O`, for which the outcome was inactive.
`CC(C)C[C@H](NC(=O)[C@@H]1CCCN1C(=O)[C@H](CCC(=O)O)NC(=O)[C@@H](N)Cc1ccccc1)C(=O)N[C@@H](C)C(=O)N[C@@H](CCCNC(=N)N)C(=O)O` (H-FEPLAR-OH): the result was inactive.

The next test deals with T2, C3a anaphylatoxin chemotactic receptor (Homo sapiens, UniProt Q16581).
T2 sequence (Q16581 whole entry): T1 sequence (whole entry)
The experiment in a line: Agonist activity at human C3a receptor in human U937 cells assessed as induction of intracellular calcium release. The format is functional, cell-based, U-937. The note with it: read-out: EC50.
With `CSCC[C@H](NC(=O)[C@@H]1CCCN1C(=O)[C@H](CCCCN)NC(=O)[C@H](Cc1cnc[nH]1)NC(=O)[C@H](CO)NC(=O)[C@@H](N)Cc1ccc(O)cc1)C(=O)N1CCC[C@H]1C(=O)N[C@@H](CC(C)C)C(=O)N[C@H](C)C(=O)N[C@@H](CCCN=C(N)N)C(=O)O`, the EC50 worked out at 5700 nM.
On the same count and under the same terms, under `N=C(N)NCCC[C@@H](NC(=O)[C@H](CC1CCCCC1)NC(=O)[C@@H](CC1CCCCC1)NC(=O)[C@@H]1CCCN1C(=O)[C@H](CCCCN)NC(=O)[C@@H](N)Cc1ccccc1)C(N)=O` stands 2200 nM; under `CC(C)C[C@H](NC(=O)[C@@H](NC(=O)[C@H](CC(C)C)NC(=O)[C@@H](N)Cc1ccccc1)C(C)C)C(=O)N[C@@H](C)C(=O)N[C@H](CCCN=C(N)N)C(=O)O`, 57000 nM.
Consider `CC(=O)N[C@@H](Cc1ccccc1)C(=O)N[C@@H](CC(C)C)C(=O)N[C@H](C(=O)N[C@@H](CC(C)C)C(=O)N[C@@H](C)C(=O)N[C@@H](CCCNC(=N)N)C(=O)O)[C@@H](C)O` (Ac-FLTLAR-OH), for which the EC50 was 520 nM.
Still for that read-out and setting: with `CC(C)C[C@H](NC(=O)[C@@H]1CCCN1C(=O)[C@H](Cc1ccccc1)NC(=O)[C@@H](N)Cc1ccccc1)C(=O)N[C@@H](C)C(=O)N[C@@H](CCCNC(=N)N)C(=O)O` (H-FFPLAR-OH) the figure was 5400 nM; with `CC(C)C[C@H](NC(=O)[C@@H]1CCCN1C(=O)[C@H](CCCCN)NC(=O)[C@@H](N)Cc1ccccc1)C(=O)N[C@@H](C)C(=O)N[C@@H](CCCNC(=N)N)C(=O)O` (H-FKPLAR-OH), 33000 nM.
Still for that read-out and setting: with `CC(C)C[C@H](NC(=O)[C@@H]1CCCN1C(=O)[C@H](CCCCN)NC(=O)[C@@H](N)Cc1ccccc1)C(=O)N[C@@H](Cc1c[nH]c2ccccc12)C(=O)N[C@@H](CCCN=C(N)N)C(=O)O` (H-FKPLWR-OH) the figure was 25000 nM; with `CCCC[C@H](NC(=O)[C@@H]1CCCN1C(=O)[C@H](CCCCN)NC(=O)[C@@H](N)Cc1ccccc1)C(=O)N[C@@H](C)C(=O)N[C@@H](CCCN=C(N)N)C(=O)O` (H-FKP[Nle]AR-OH), 38000 nM; with `CC(C)C[C@H](NC(=O)[C@@H](NC(=O)[C@H](CCCCN)NC(=O)[C@@H](N)Cc1ccccc1)[C@@H](C)O)C(=O)N[C@@H](C)C(=O)N[C@@H](CCCNC(=N)N)C(=O)O` (H-FKTLAR-OH), 3800 nM.
Still for that read-out and setting: under `CC(C)C[C@H](NC(=O)[C@H](C)NC(=O)[C@H](CC(C)C)NC(=O)[C@@H](N)Cc1ccccc1)C(=O)N[C@@H](C)C(=O)N[C@@H](CCCNC(=N)N)C(=O)O` (H-FLALAR-OH) stands 101000 nM.
Regarding `CC(C)C[C@H](NC(=O)[C@@H]1CCCN1C(=O)[C@H](CC(C)C)NC(=O)[C@@H](N)Cc1ccccc1)C(=O)N[C@@H](C)C(=O)N[C@@H](CCCNC(=N)N)C(=O)O` (H-FLPLAR-OH), the EC50 was 420 nM.
On the same count and under the same terms, with `CC(C)C[C@H](NC(=O)[C@H](CO)NC(=O)[C@H](CC(C)C)NC(=O)[C@@H](N)Cc1ccccc1)C(=O)N[C@@H](C)C(=O)N[C@@H](CCCNC(=N)N)C(=O)O` (H-FLSLAR-OH) the figure was 360 nM; with `CC(C)C[C@H](NC(=O)[C@@H](NC(=O)[C@H](CC(C)C)NC(=O)[C@@H](N)Cc1ccccc1)[C@@H](C)O)C(=O)N[C@@H](C)C(=O)N[C@@H](CCCN=C(N)N)C(N)=O` (H-FLTLAR-NH2), 37000 nM.
On to `CC(C)C[C@H](NC(=O)[C@@H](N)Cc1ccccc1)C(=O)N[C@H](C(=O)N[C@@H](CC(C)C)C(=O)N1CCC[C@H]1C(=O)N[C@@H](CCCN=C(N)N)C(=O)O)[C@@H](C)O` (H-FLTLPR-OH), for which the EC50 was determined as 29000 nM.
On the same count and under the same terms, under `CCCC[C@H](NC(=O)[C@@H](NC(=O)[C@H](CC(C)C)NC(=O)[C@@H](N)Cc1ccccc1)[C@@H](C)O)C(=O)N[C@@H](C)C(=O)N[C@@H](CCCN=C(N)N)C(=O)O` (H-FLT[Nle]AR-OH) stands 2700 nM; under `CC(C)C[C@H](NC(=O)[C@@H]1CCCN1C(=O)[C@H](CCC(N)=O)NC(=O)[C@@H](N)Cc1ccccc1)C(=O)N[C@@H](C)C(=O)N[C@@H](CCCNC(=N)N)C(=O)O` (H-FQPLAR-OH), 5300 nM.
On the same count and under the same terms, with `CC(C)C[C@H](NC(=O)[C@@H](NC(=O)[C@H](CCCNC(=N)N)NC(=O)[C@@H](N)Cc1ccccc1)[C@@H](C)O)C(=O)N[C@@H](C)C(=O)N[C@@H](CCCNC(=N)N)C(=O)O` (H-FRTLAR-OH) the figure was 6800 nM.
Still for that read-out and setting: under `CC(C)C[C@H](NC(=O)[C@H](C)NC(=O)[C@H](Cc1c[nH]c2ccccc12)NC(=O)[C@@H](N)Cc1ccccc1)C(=O)N[C@@H](C)C(=O)N[C@@H](CCCN=C(N)N)C(=O)O` (H-FWALAR-OH) stands 1200 nM; under `CC(C)C[C@H](NC(=O)CNC(=O)[C@H](Cc1c[nH]c2ccccc12)NC(=O)[C@@H](N)Cc1ccccc1)C(=O)N[C@@H](C)C(=O)N[C@@H](CCCNC(=N)N)C(=O)O` (H-FWGLAR-OH), 470 nM.
For the molecule `CC(C)C[C@H](NC(=O)[C@H](CO)NC(=O)[C@H](Cc1c[nH]c2ccccc12)NC(=O)[C@@H](N)Cc1ccccc1)C(=O)N[C@@H](C)C(=O)N[C@@H](CCCNC(=N)N)C(=O)O` (H-FWSLAR-OH), the EC50 was 490 nM.
On the same count and under the same terms, under `CC(C)C[C@H](NC(=O)[C@@H]1CCCN1C(=O)[C@H](Cc1cccc2ccccc12)NC(=O)[C@@H](N)Cc1ccccc1)C(=O)N[C@@H](C)C(=O)N[C@@H](CCCNC(=N)N)C(=O)O` (H-F[1Nal]PLAR-OH) stands 720 nM; under `CC(C)C[C@H](NC(=O)[C@@H]1CCCN1C(=O)[C@H](CC1CCCCC1)NC(=O)[C@@H](N)Cc1ccccc1)C(=O)N[C@@H](C)C(=O)N[C@@H](CCCNC(=N)N)C(=O)O` (H-F[Cha]PLAR-OH), 780 nM; under `CCCC[C@H](NC(=O)[C@@H](N)Cc1ccccc1)C(=O)N1CCC[C@H]1C(=O)N[C@@H](CC(C)C)C(=O)N[C@@H](C)C(=O)N[C@@H](CCCN=C(N)N)C(=O)O` (H-F[Nle]PLAR-OH), 1800 nM.
On the same count and under the same terms, with `CCCC[C@H](NC(=O)[C@@H](N)Cc1ccccc1)C(=O)N[C@H](C(=O)N[C@@H](CC(C)C)C(=O)N[C@@H](C)C(=O)N[C@@H](CCCN=C(N)N)C(=O)O)[C@@H](C)O` (H-F[Nle]TLAR-OH) the figure was 310 nM; with `CC(C)C[C@H](NC(=O)[C@@H]1CCCN1C(=O)[C@H](CCc1ccccc1)NC(=O)[C@@H](N)Cc1ccccc1)C(=O)N[C@@H](C)C(=O)N[C@@H](CCCN=C(N)N)C(=O)O` (H-F[hPhe]PLAR-OH), 1100 nM.
On to `CC(C)C[C@H](NC(=O)[C@@H](NC(=O)[C@H](CC(C)C)NC(=O)[C@@H](N)Cc1ccc(O)cc1)[C@@H](C)O)C(=O)N[C@@H](C)C(=O)N[C@@H](CCCN=C(N)N)C(=O)O` (H-YLTLAR-OH), for which the EC50 was 2500 nM.
Still for that read-out and setting: with `CC(C)C[C@H](NC(=O)[C@@H](NC(=O)[C@H](CC(C)C)NC(=O)[C@@H](N)CCc1ccccc1)[C@@H](C)O)C(=O)N[C@@H](C)C(=O)N[C@@H](CCCNC(=N)N)C(=O)O` (H-[hPhe]LTLAR-OH) the figure was 11000 nM.

The test is the same for the next values; noted with them: read-out: pEC50 (converted).
For `CC(C)C[C@H](NC(=O)[C@H](C)NC(=O)[C@H](CC(C)C)NC(=O)[C@@H](N)Cc1ccccc1)C(=O)N[C@@H](C)C(=O)N[C@@H](CCCNC(=N)N)C(=O)O` (H-FLALAR-OH), the EC50 is 1100 nM.
